Measured values reported in patent US20090054403A1, “Treatment of Post-Traumatic Stress Disorder” (priority 2007, published 2009).
“Also recorded” adds a separate entry of the source.

What was measured:
[1] = system: pre-pulse inhibition; experiment: Pre-pulse inhibition of acoustic startle on day ten of chronic dosing
Description: (§1) The effects of chronic dosing of nepicastat were examined. Between three and thirteen days prior to the first dosing day the rats were placed inside the startle apparatus and after a five minute acclimation period they were presented with a 118 dB noise burst on average once a minute (a variable inter-trial interval ranging between 30 and 90 seconds will be used) for 20 minutes. The startle responses were measured and a mean for the last twenty startle response was calculated for each rat.
Acoustic startle reactivity (a series of muscle contractions elicited by an intense burst of noise with a rapid onset), and pre-pulse inhibition (sensorimotor gating measured by analyzing any decrease in startle reactivity which occurs when a startling stimulus is immediately preceded by a non startling stimulus) were both measured in eight SR-Lab (San Diego Instruments, San Diego, Calif.) test stations. The rats were placed individually in a Plexiglas cylinder (10 cm diameter) which was housed in a ventilated sound-attenuating enclosure. Acoustic noise bursts (a broad band noise with a rise time and fall time of 1 msec) were presented via a speaker mounted 30 cm above the animal. Also, these speakers produced a 68 dB level of background noise throughout all test sessions. […] A decibel meter was used to calibrate the speakers in each of the eight test station to ±1% of the mean. Additionally, a SR-Lab calibrating instrument was used to calibrate each of the eight startle detection apparatuses to ±2% of the mean. Startle reactivity and pre-pulse inhibition tests were run concurrently immediately alter the motor activity test (about 4 hours and 40 minutes after the morning daily injection of nepicastat, and SKF-102698, and 10 minutes after a supplemental administration of clonidine and d-amphetamine on dosing day ten).

[2] = system: spontaneous motor activity; experiment: Spontaneous motor activity on day ten of chronic dosing
Description: as §1
The animals were tested in an enclosed room with a white noise generator running. Motor activity tests were conducted immediately after the body core temperature reading taken on dosing day ten (about 3 hours and 35 minutes after the morning daily dose of nepicastat, and SKF-102698, and 20 minutes prior to the daily administration of clonidine and d-amphetamine on dosing day ten). Motor activity tests were run for one hour. A diagnostic program was run on each of the motor activity chambers prior to each test session to assure that the photo beams and light sensors were operating properly. […] D-amphetamine was used as the positive control for this assay.
Each rats spontaneous locomotion was obtained by calculating the total number of photobeams that the subject broke during the testing session.
Spontaneous motor activity was measured for each animal every 15 min for 1 hour. Each time block (every 15 min) was analyzed separately. Kruskal-Wallis test (nonparametric technique) was performed to test for the difference between treatment groups. If the overall significant difference […], Bonferroni's adjustment for multiple comparisons is then made.

[3] = system: squirrel monkeys; experiment: Safety and tolerability of oral dosing in squirrel monkeys; format: in vivo, squirrel monkeys (Saimiri sciureus); settings: 0.5, 2.0, 5.0 mg/kg twice daily for 5 days
Description: Twenty-seven (27) mature squirrel monkeys (Saimiri sciureus), sixteen females and eleven males were used for this study. The monkeys were maintained on a 13 h/11 h light-dark cycle, with food and water available ad libitum. All procedures used in this study followed NIH guidelines and were approved by the Institutional Animal Care and Use Committee (IACUC). Animals were individually housed and allowed a minimum of one month to acclimate to the colony prior to commencing behavioral studies. A total of six squirrel monkeys, three non-lesioned and three lesioned (received 2 mg/kg MPTP 3 months prior), were used for these studies. To determine the optimal route of administration of drug nepicastat, three different approaches were examined including (i) insertion into treats, (ii) oral syringe, and (ii) oral gavage. […] (ii) Oral syringe injection of drug (0.5, 2, and 5 mg/kg) into the mouth of three non-lesioned and three lesioned monkeys was also not an acceptable route since animals tended to spit out the solution at the highest drug concentration. (iii) Oral gavage administration was carried out in 3 MPTP-Iesioned monkeys at the highest dose (5 mg/kg) and was well accepted.
A total of six squirrel monkeys, three non-lesioned and three lesioned (received 2 mg/kg MPTP 3 months prior), were used for these studies. […]

[4] = system: blood pressure; experiment: Radio-telemetry blood pressure in SHR, up to 30 days; format: in vivo

Fc1cc(F)cc(Cn2cc[nH]c2=S)c1 [SKF 102698, reference compound] was tested, and the “percent prepulse inhibition vs vehicle” value ([1]; day ten of b.i.d. oral dosing) was “marginally higher percent prepulse inhibition; also recorded: Neither d-amphetamine nor SKF 102698 was significantly different”, the “spontaneous motor (locomotor) activity vs vehicle” value (shortened to “spontaneous motor … vs vehicle”) ([2]; day ten of b.i.d. oral dosing, 1 hour) was “significantly lower locomotor activity than its vehicle control at the first 45 minutes” and the “spontaneous motor … vs vehicle” value ([2]; day ten of b.i.d. oral dosing, 1 hour, listed as SKF102698) was “significantly reduced”.
With Cl.NCc1c[nH]c(=S)n1[C@H]1CCc2c(F)cc(F)cc2C1 [nepicastat, (S)-5-Aminomethyl-1-(5,7-difluoro-1,2,3,4-tetrahydronaphth-2-yl)-2,3-dihydro-2-thioxo-1H-imidazole hydrochloride] the “percent prepulse inhibition vs vehicle” value ([1]; rat, in vivo, po) was “None of the nepicastat dose groups were significantly different”, the tolerability [3] was “well tolerated at the two lower doses” and the “spontaneous motor … vs vehicle” value ([2]; rat, in vivo, po) was “no overall significant treatment effect”. For the same compound, the “peak decrease in blood pressure” value ([4]; 30 mg/kg/d) was −20 mmHg, the “peak decrease in blood pressure” value ([4]; 100 mg/kg/d) was −42 mmHg and the “effect on blood pressure” value ([4]; 3 and 10 mg/kg/d) was “no significant effects”. For the same compound, the “effect on blood pressure” value ([4]; 30 and 100 mg/kg/d for 30 days) was “significantly lowered blood pressure”, the “effect on blood pressure of nepicastat 30 mg/kg combined with enalapril 1 mg/kg p.o.” value ([4]; 30 days of dosing) was “potentiation of the antihypertensive effects” and the “left ventricular mass, nepicastat 30 mg/kg combined with enalapril 1 mg/kg p.o.” value ([4]; 30 days of dosing) was “significant reduction in left ventricular mass”. For the same compound, the motor activity ([4]; 30 days of dosing) was “unaffected”.
